In data set [1] the target is Human OGA (recombinant hOGA protein) (Homo sapiens (Human), UniProt O60502). Description: Human OGA enzyme activity assay (fluorescence, 4-Methylumbelliferyl N-acetyl-β-D-glucosaminide substrate). It counts as biochemical. Particulars: for IC50: Table 1; for % of inhibition: Table 1, test concentration not given.

These results are taken from US20240018135A1, “COMPOUND HAVING INHIBITORY ACTIVITY AGAINST O-GLUSACASE AND USE THEREOF” (MEDIFRON DBT INC., priority 2020, published 2024).

Chain of Human OGA (recombinant hOGA protein) (O60502 whole entry): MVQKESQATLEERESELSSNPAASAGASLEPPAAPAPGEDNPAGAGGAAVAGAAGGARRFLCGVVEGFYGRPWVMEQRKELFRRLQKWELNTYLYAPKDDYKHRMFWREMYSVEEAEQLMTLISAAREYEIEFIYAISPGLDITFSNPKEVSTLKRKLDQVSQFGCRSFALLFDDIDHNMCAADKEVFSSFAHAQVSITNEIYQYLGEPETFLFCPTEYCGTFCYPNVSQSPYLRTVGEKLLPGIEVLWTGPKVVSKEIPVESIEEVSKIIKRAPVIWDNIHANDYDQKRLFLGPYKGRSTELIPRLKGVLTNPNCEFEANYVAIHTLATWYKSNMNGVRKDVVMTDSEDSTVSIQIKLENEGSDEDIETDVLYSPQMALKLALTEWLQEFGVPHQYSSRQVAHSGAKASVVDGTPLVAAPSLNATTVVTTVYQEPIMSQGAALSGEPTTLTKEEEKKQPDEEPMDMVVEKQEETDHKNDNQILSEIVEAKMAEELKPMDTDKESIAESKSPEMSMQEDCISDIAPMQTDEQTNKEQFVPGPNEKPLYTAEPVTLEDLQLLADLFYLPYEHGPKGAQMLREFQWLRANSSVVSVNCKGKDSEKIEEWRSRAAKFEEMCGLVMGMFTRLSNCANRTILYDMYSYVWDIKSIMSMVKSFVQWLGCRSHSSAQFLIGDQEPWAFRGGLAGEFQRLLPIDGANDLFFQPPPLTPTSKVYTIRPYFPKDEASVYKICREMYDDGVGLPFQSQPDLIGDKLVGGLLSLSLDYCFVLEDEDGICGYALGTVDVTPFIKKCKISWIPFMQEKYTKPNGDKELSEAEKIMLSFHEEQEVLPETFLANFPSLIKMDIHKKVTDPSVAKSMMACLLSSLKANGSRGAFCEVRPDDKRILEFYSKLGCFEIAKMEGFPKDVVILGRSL

For the compound `CC(=O)Nc1ncc(CN2CCC(C(=O)NC(C)c3ccc4c(c3)OCO4)CC2)s1` (stereo not drawn) [Compound B-9, 1-((2-acetamidothiazol-5-yl)methyl)-N-(1-(benzo[d][1,3]dioxol-5-yl)ethyl)piperidine-4-carboxamide], the melting point fell in the range of 211 to 213 °C. Besides, in data set [1], the IC50 came to 1.01 µM and the “% of inhibition” value came out at 93.1%.

In turn, `CC(=O)Nc1ncc(CN2CCC(C(=O)NC(C)c3ccccc3)CC2)s1` (stereo not drawn) [Compound B-10, 1-((2-acetamidothiazol-5-yl)methyl)-N-(1-phenylethyl)piperidine-4-carboxamide] gave a melting point of 178 to 179 °C. Moreover, in data set [1], the concentration for half-maximal inhibition (IC50) came out at 0.9 µM and the “% of inhibition” value was found to be 93.3%.

Take `CC(=O)Nc1ncc(CN2CCC(C(=O)OC(C)c3ccc4c(c3)OCO4)CC2)s1` (stereo not drawn) [Compound B-13, 1-(benzo[d][1,3]dioxol-5 yl)ethyl 1-((2-acetamidothiazol-5-yl)methyl)piperidine-4-carboxylate]: the melting point fell in the range of 215 to 217 °C. Further, in data set [1], the 50% inhibitory concentration (IC50) is 0.06 µM and the “% of inhibition” value is 98.9%.

In the case of `CC(=O)Nc1ncc(CN2CCCC(C(=O)Nc3ccccc3)C2)s1` (stereo not drawn) [Compound B-16, 1-((2-acetamidothiazol-5-yl)methyl)-N-phenylpiperidine-3-carboxamide], the melting point was 257 to 259 °C. In data set [1], the 50% inhibitory concentration (IC50) was determined as 0.23 µM and the “% of inhibition” value is reported as 95.5%.

As for `CC(=O)Nc1ncc(CN2CCCC(C(=O)Nc3ccc(F)cc3)C2)s1` (stereo not drawn) [Compound B-17, 1-((2-acetamidothiazol-5-yl)methyl)-N-(4-fluorophenyl)piperidine-3-carboxamide], the melting point lay in the range of 127 to 129 °C. In data set [1], the concentration for half-maximal inhibition (IC50) stood at 0.34 µM and the “% of inhibition” value is on record as 96.7%.

In the case of `CC(=O)Nc1ncc(CN2CCCC(C(=O)Nc3ccc(C(C)C)cc3)C2)s1` (stereo not drawn) [Compound B-18, 1-((2-acetamidothiazol-5-yl)methyl)-N-(4-isopropylphenyl)piperidine-3-carboxamide], the melting point fell in the range of 234 to 236 °C. In addition, in data set [1], the IC50 was found to be 0.24 µM and the “% of inhibition” value is listed as 96.4%.

Take `CC(=O)Nc1ncc(CN2CCCC(C(=O)NC3CCCCC3)C2)s1` (stereo not drawn) [Compound B-19, 1-((2-acetamidothiazol-5 yl)methyl)-N-cyclohexylpiperidine-3-carboxamide]: the melting point was in the range of 265 to 267 °C. For the same compound, in data set [1], the concentration for half-maximal inhibition (IC50) worked out at 0.45 µM and the “% of inhibition” value is given as 97.6%.

As to `CC(=O)Nc1ncc(CN2CCC(=CC(=O)Nc3ccccc3)CC2)s1` [Compound C-1, 2-(1-((2-acetamidothiazol-5-yl)methyl)piperidin-4-ylidene)-N-phenylacetamide], the melting point lay in the range of 184 to 185 °C. In data set [1], the IC50 was 0.31 µM and the “% of inhibition” value is 96.2%.

In turn, `CC(=O)Nc1ncc(CN2CCC(=CC(=O)Nc3ccc(F)cc3)CC2)s1` [Compound C-2, 2-(1-((2-acetamidothiazol-5-yl)methyl)piperidin-4-ylidene)-N-(4-fluorophenyl)acetamide] came in with a melting point of 189 to 191 °C. Besides, in data set [1], the IC50 was found to be 0.17 µM and the “% of inhibition” value was found to be 97.1%.

Regarding `CC(=O)Nc1ncc(CN2CCC(=CC(=O)Nc3ccc(Cl)cc3)CC2)s1` [Compound C-3, 2-(1-((2-acetamidothiazol-5-yl)methyl)piperidin-4-ylidene)-N-(4-chlorophenyl)acetamide], the melting point was 225 to 228 °C. Moreover, in data set [1], the IC50 stood at 0.14 µM and the “% of inhibition” value amounted to 97.3%.

Consider `CC(=O)Nc1ncc(CN2CCC(=CC(=O)Nc3ccc(C(C)C)cc3)CC2)s1` [Compound C-4, 2-(1-((2-acetamidothiazol-5-yl)methyl)piperidin-4-ylidene)-N-(4-isopropylphenyl)acetamide], for which the melting point lay within 232 to 236 °C. Besides, in data set [1], the half-maximal inhibitory concentration (IC50) worked out at 0.23 µM and the “% of inhibition” value came out at 97.0%.

For orientation: IC50 means the concentration that inhibits the measured activity by half. One may read the melting point as the temperature of the solid-liquid transition.
